The target of one data set is T1, hKv1.5 (Homo sapiens, UniProt P22460).
T1 construct: expressed in transfected cells; host or cells: CHO
As to the kind of experiment: Kv1.5 electrophysiology, whole cell patch clamp. Type of data set: cell-based. The following applies: CHO stably transfected with hKv1.5, whole cell patch clamp, room temperature. The protocol:
The ability of the compounds of the invention to inhibit the Kv1.5 potassium channel was measured in an electrophysiology experiment, using recombinant cells expressing the channel of interest in a whole cell patch clamp experiment.
The external bathing solution contained (in mM): 150 NaCl, 10 KCl, 3 MgCl2, 1 CaCl2, HEPES, pH 7.4. Patch pipettes were filled with an electrode solution of composition (in mM): 160 KCl, 0.5 MgCl2, 10 HEPES, 1 EGTA, pH 7.2 with KOH.
Compounds were dissolved in DMSO (100%) and freshly made up in the external bather at the desired concentration (final DMSO concentration=0.1%). All experiments were conducted at room temperature.
For whole-cell patch-clamp studies cells (CHO stably transfected with hKv1.5) were seeded onto glass coverslips before recordings were made. Cells were seeded in sterile 30 mm Petri dishes at a density to enable isolated cells to be selected for patch clamp experiments. The dishes were stored in a humidified, gassed (5% CO2) incubator at 37° C. until use.
Whole-cell patch-clamp recordings of membrane currents were made following gigaohm seal formation between the patch electrode and the cell using HEKA EPC-9/10 amplifiers controlled by Pulse Software (Ver8.5x/8.6x, HEKA, Germany). Coverslips seeded with cells were placed in a recording chamber mounted on the stage of an inverted microscope. During the experiment the cell of interest was continuously superfused with bather solution delivered via a cannula placed in close proximity to the cell to enable control of the extracellular solution environment. Only those cells with a current>500 pA were used for experiments. […]
Electrophysiology voltage-step protocols and analysis of data was performed as follows. […] Mean currents during 75-95% of the depolarising step to 0 mV were analysed using Pulsefit software (v8.x, HEKA, Germany). […] The test substance was allowed to equilibrate during which time voltage protocol was repeatedly applied and recorded. Percentage inhibition of the current in the presence of test substance was calculated relative to the control pre-drug value.
Background: Patch clamp records ionic current or voltage across a cell membrane.

Each structure is given as a SMILES string.

T1 sequence (P22460 whole entry): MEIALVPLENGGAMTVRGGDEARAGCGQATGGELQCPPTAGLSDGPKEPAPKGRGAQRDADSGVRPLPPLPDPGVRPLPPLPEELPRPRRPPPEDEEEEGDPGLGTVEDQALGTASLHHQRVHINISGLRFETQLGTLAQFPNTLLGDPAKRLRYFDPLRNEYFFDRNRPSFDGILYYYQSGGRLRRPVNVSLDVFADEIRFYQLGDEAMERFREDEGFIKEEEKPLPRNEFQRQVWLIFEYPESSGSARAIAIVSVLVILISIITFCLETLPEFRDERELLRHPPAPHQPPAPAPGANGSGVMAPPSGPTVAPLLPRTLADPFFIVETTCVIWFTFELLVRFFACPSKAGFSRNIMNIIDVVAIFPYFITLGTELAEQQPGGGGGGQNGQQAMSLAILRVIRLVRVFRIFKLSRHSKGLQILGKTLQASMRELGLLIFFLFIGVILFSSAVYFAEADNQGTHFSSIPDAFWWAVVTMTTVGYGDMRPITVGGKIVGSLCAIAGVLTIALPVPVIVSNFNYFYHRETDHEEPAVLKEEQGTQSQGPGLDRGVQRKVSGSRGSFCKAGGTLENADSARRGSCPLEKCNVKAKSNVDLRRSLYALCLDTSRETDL

For orientation: IC50 means the midpoint of a concentration-inhibition curve. A higher IC50 goes with weaker potency in that assay. As a reminder, the melting point is the temperature of the solid-liquid transition. With `O=C(NCCO)C1CCCN(c2nc(NCc3ccccn3)c3c(-c4ccccc4)csc3n2)C1` (racemic) [Racemate, 1-{5-Phenyl-4-[(pyridin-2-ylmethyl)-amino]-thieno[2,3-d]pyrimidin-2-yl}-piperidine-3carboxylic acid (2-hydroxy-ethyl)-amide], the melting point is 190 to 194 °C. On hKv1.5, this compound had an IC50 of 9 nM.

With `O=C(NCCO)[C@@H]1CCCN(c2nc(NCc3ccccn3)c3c(-c4ccccc4)csc3n2)C1` [(R) enantiomer (Ic), (R)-1-{5-Phenyl-4-[(pyridin-2-ylmethyl)-amino]-thieno[2,3-d]pyrimidin-2-yl}-piperidine-3-carboxylic acid (2-hydroxy-ethyl)-amide], the melting point was in the range of 71 to 76 °C. For the same compound, half-maximal inhibition against hKv1.5 (IC50) was put at 5 nM.

Turning to `O=C(NCCO)[C@H]1CCCN(c2nc(NCc3ccccn3)c3c(-c4ccccc4)csc3n2)C1` [(S) enantiomer (Ib), (S)-1-{5-Phenyl-4-[(pyridin-2-ylmethyl)-amino]-thieno[2,3-d]pyrimidin-2-yl}-piperidine-3-carboxylic acid (2-hydroxy-ethyl)-amide], the melting point lay in the range of 61 to 65 °C. The compound also gave an IC50 at hKv1.5 of 27 nM.

For the origin of these results see patent US9249155B2, “Thieno [2, 3-D] pyrimidine derivatives and their use to treat arrhythmia” (XENTION LIMITED, priority 2011, dated 2016).
